Data reported in the supplement of paper PMC13380429.

Legend:
Settings in all cases: 72 h
Caco-2 [1] = test: cell viability relative to DMSO; higher = less toxic
Calu-3 [2] = test: as above
U2OS [3] = test: as above
HepG2 [4] = test: as above
Vero E6 [5] = test: as above
Caco-2 [6] = test: drug sensitivity score (DSS) for viability; higher = more toxic; extreme values may be limits of the assay
Calu-3 [7] = test: as above
U2OS [8] = test: as above
HepG2 [9] = test: as above
Vero E6 [10] = test: as above
Caco-2 [11] = test: relative viability EC50 (midpoint between 100% and the lowest measured viability); higher = less toxic
Calu-3 [12] = test: as above
U2OS [13] = test: as above
HepG2 [14] = test: as above
Vero E6 [15] = test: as above

Row | Structure (SMILES) | cell viability (Caco-2 [1]; 1 nM) [%] | cell viability (Caco-2 [1]; 10 nM) [%] | cell viability (Caco-2 [1]; 100 nM) [%] | cell viability (Caco-2 [1]; 1000 nM) [%] | cell viability (Caco-2 [1]; 10000 nM) [%] | cell viability (Calu-3 [2]; 1 nM) [%] | cell viability (Calu-3 [2]; 10 nM) [%] | cell viability (Calu-3 [2]; 100 nM) [%] | cell viability (Calu-3 [2]; 1000 nM) [%] | cell viability (Calu-3 [2]; 10000 nM) [%] | cell viability (U2OS [3]; 1 nM) [%] | cell viability (U2OS [3]; 10 nM) [%] | cell viability (U2OS [3]; 100 nM) [%] | cell viability (U2OS [3]; 1000 nM) [%] | cell viability (U2OS [3]; 10000 nM) [%] | cell viability (HepG2 [4]; 1 nM) [%] | cell viability (HepG2 [4]; 10 nM) [%] | cell viability (HepG2 [4]; 100 nM) [%] | cell viability (HepG2 [4]; 1000 nM) [%] | cell viability (HepG2 [4]; 10000 nM) [%] | cell viability (Vero E6 [5]; 1 nM) [%] | cell viability (Vero E6 [5]; 10 nM) [%] | cell viability (Vero E6 [5]; 100 nM) [%] | cell viability (Vero E6 [5]; 1000 nM) [%] | cell viability (Vero E6 [5]; 10000 nM) [%] | drug sensitivity score (Caco-2 [6]) | drug sensitivity score (Calu-3 [7]) | drug sensitivity score (U2OS [8]) | drug sensitivity score (HepG2 [9]) | drug sensitivity score (Vero E6 [10]) | relative viability EC50 (Caco-2 [11]) [µM] | relative viability EC50 (Calu-3 [12]) [µM] | relative viability EC50 (U2OS [13]) [µM] | relative viability EC50 (HepG2 [14]) [µM] | relative viability EC50 (Vero E6 [15]) [µM]
1 | CN1CCN(CCCN2c3ccccc3Sc3ccc(S(=O)(=O)N(C)C)cc32)CC1 [thioproperazine] | 95.7 | 93.3 | 89.6 | 113 | 79 | 98 | 93.5 | 105 | 103 | 90.9 | 107 | 97.1 | 104 | 99.7 | 97.9 | 108 | 103 | 105 | 99.6 | 92.5 | 99.3 | 95.9 | 94.9 | 85.2 | 90.6 | 0.4 | 0 | 0 | 0 | 0.6 | > 10 | > 10 | > 10 | > 10 | > 10
2 | Cc1cnc(Nc2ccc(OCCN3CCCC3)cc2)nc1Nc1cccc(S(=O)(=O)NC(C)(C)C)c1 [fedratinib] | 101 | 97.1 | 99.3 | 79.6 | 11.9 | 107 | 102 | 100 | 98.5 | 18.3 | 104 | 97.4 | 99.2 | 86.2 | 0.8 | 120 | 100 | 101 | 74.2 | 22.2 | 96 | 104 | 104 | 94.2 | 0.3 | 8.1 | 4.7 | 7.8 | 8 | 6.4 | 1.61 | 3.04 | 2.05 | 1.32 | 2.71
3 | CC1(C)N=C(N)N=C(N)N1OCCCOc1cc(Cl)c(Cl)cc1Cl | 99.7 | 91.5 | 95.5 | 102 | 99.6 | 100 | 96.1 | 93.8 | 93.7 | 100 | 99.3 | 93.9 | 99.1 | 95.7 | 95 | 104 | 93.8 | 93.9 | 99.5 | 98.7 | 94.7 | 96.8 | 95.3 | 98 | 108 | 0 | 0 | 0 | 0 | 0 | > 10 | > 10 | > 10 | > 10 | > 10
4 | c1ccc2nc(N3CCNCC3)ccc2c1 [quipazine] | 99 | 98.9 | 93.1 | 95.3 | 106 | 102 | 101 | 109 | 96.1 | 99.3 | 100 | 97.4 | 102 | 100 | 100 | 93.7 | 97.8 | 99.7 | 93.5 | 101 | 90.8 | 96.3 | 92.1 | 96.7 | 101 | 0 | 0 | 0 | 0 | 0 | > 10 | > 10 | > 10 | > 10 | > 10
5 | [Cl][Ti][Cl].c1cc[cH-]c1.c1cc[cH-]c1 [titanocene-dichloride] | 97.7 | 98.2 | 99.2 | 94.6 | 95.8 | 99.2 | 97.1 | 112 | 97.1 | 110 | 93.2 | 93.1 | 97.5 | 94.6 | 96.1 | 89.6 | 91.9 | 97.2 | 104 | 101 | 93.7 | 95.2 | 93.4 | 98.9 | 105 | 0 | 0 | 0 | 0 | 0 | > 10 | > 10 | > 10 | > 10 | > 10
6 | CC(=O)c1c(O)cc(C)oc1=O [dehydroacetic-acid] | 101 | 107 | 91.9 | 104 | 94.9 | 105 | 107 | 98.2 | 101 | 101 | 99.2 | 101 | 96.2 | 103 | 100 | 100 | 103 | 99.9 | 96.7 | 103 | 98 | 93.6 | 92.5 | 101 | 95.4 | 0 | 0 | 0 | 0 | 0 | > 10 | > 10 | > 10 | > 10 | > 10
7 | C/C=C1\[C@H]2C=C(C)C[C@]1(N)c1ccc(=O)[nH]c1C2 [(-)-Huperzine A] | 103 | 97.7 | 90.6 | 100 | 107 | 91 | 96.7 | 96.1 | 106 | 101 | 95.1 | 101 | 98.8 | 103 | 98.3 | 106 | 97.4 | 102 | 93 | 97.5 | 93 | 96.8 | 98 | 90.7 | 107 | 0 | 0 | 0 | 0 | 0 | > 10 | > 10 | > 10 | > 10 | > 10
8 | CCC(=O)O[C@]1(C(=O)CCl)[C@@H](C)C[C@H]2[C@@H]3C[C@H](F)C4=CC(=O)C=C[C@]4(C)[C@@]3(F)[C@@H](O)C[C@@]21C [halobetasol-propionate] | 105 | 105 | 104 | 108 | 99.4 | 81.1 | 82.1 | 77.5 | 93.1 | 80 | 96.7 | 102 | 95.8 | 101 | 93.6 | 106 | 93.9 | 102 | 98.1 | 111 | 99.9 | 101 | 104 | 102 | 106 | 0 | 0 | 0 | 0 | 0 | > 10 | > 10 | > 10 | > 10 | > 10
9 | COC(=O)[C@H](Cc1cccc(C(=N)N)c1)[C@@H](C)NC(=O)c1ccc(-c2cc[n+]([O-])cc2)cc1 [otamixaban] | 104 | 104 | 101 | 99.2 | 104 | 88.9 | 92 | 90.5 | 94.4 | 105 | 99.1 | 95.3 | 98.3 | 97.8 | 104 | 89.3 | 103 | 98.6 | 102 | 96.7 | 103 | 101 | 94.1 | 97.9 | 96.3 | 0 | 0 | 0 | 0 | 0 | > 10 | > 10 | > 10 | > 10 | > 10
10 | CC(C)(C)NCC(O)COc1cccc2[nH]c(=O)[nH]c12 (stereo not given) | 96.7 | 100 | 96.5 | 97 | 97.9 | 94.9 | 101 | 88.6 | 106 | 106 | 96.8 | 97 | 97.4 | 97.9 | 101 | 97.7 | 93.3 | 105 | 110 | 113 | 98.7 | 97.2 | 97.1 | 103 | 105 | 0 | 0 | 0 | 0 | 0 | > 10 | > 10 | > 10 | > 10 | > 10
11 | CCCC[C@@]1(C2CCCC2)Cc2cc(OCCCC(=O)O)c(Cl)c(Cl)c2C1=O [DCPIB] | 105 | 108 | 103 | 88.3 | 85.8 | 87 | 96.4 | 106 | 89.1 | 118 | 95.7 | 90.4 | 97.4 | 93.9 | 94.5 | 109 | 98.1 | 99.1 | 92.5 | 94.8 | 109 | 109 | 99.7 | 100 | 101 | 0.9 | 0 | 0 | 0 | 0 | > 10 | > 10 | > 10 | > 10 | > 10
12 | CC(C)(C)c1cc(C(C)(C)C)c2c(c1)C(O)(C(F)(F)F)C(=O)O2 (racemic) [rac-BHFF] | 94.3 | 91.8 | 87.4 | 93 | 94.6 | 95.9 | 93.4 | 94.8 | 93.2 | 106 | 100 | 96.8 | 103 | 99.1 | 108 | 92.4 | 105 | 98.2 | 104 | 91.8 | 99 | 103 | 99.3 | 103 | 99 | 0 | 0 | 0 | 0 | 0 | > 10 | > 10 | > 10 | > 10 | > 10
13 | CCN(c1nc(N)c(C(=O)NC(=N)N)nc1Cl)C(C)C [EIPA] | 90.8 | 104 | 101 | 100 | 105 | 92.4 | 104 | 91.9 | 102 | 84.9 | 99.7 | 100 | 99.8 | 102 | 93.8 | 100 | 97.4 | 101 | 85.6 | 86.5 | 103 | 94.2 | 96.2 | 94.2 | 104 | 0 | 0.2 | 0 | 1.2 | 0 | > 10 | > 10 | > 10 | > 10 | > 10
14 | Cn1cc(-c2ccc3nnc(C(F)(F)c4ccc5ncccc5c4)n3n2)cn1 | 105 | 96 | 95.3 | 95.9 | 92.3 | 97.4 | 104 | 89.6 | 108 | 106 | 104 | 101 | 101 | 95.5 | 96.9 | 102 | 94.3 | 105 | 109 | 104 | 99.9 | 107 | 101 | 97.8 | 92.4 | 0 | 0 | 0 | 0 | 0 | > 10 | > 10 | > 10 | > 10 | > 10
